Key:
[1] = Cytotoxicity assay (MTT), HPC cells; assay type: cell-based; settings: human, pulp cells (HPC), normal oral cells
Protocol: (§1) The cytotoxicity of the compounds were assayed toward human oral squamous cell carcinoma cell lines derived from gingiva tissue (CA9–22) and tongue (HSC-2, HSC-3, HSC-4), and human normal oral cells (gingival fibroblasts, HGF; periodontal ligament fibroblasts, HPLF; pulp cells, HPC) with some minor modifications[16]^,[17]^,[26]^,[30–33]. In brief, cells were cultured in DMEM supplemented with 10% fetal bovine serum (FBS). Cells (2.5 × 10^3 cells/well) were inoculated and incubated for 48 h to achieve complete adherence. Near confluent cells were incubated for a further 48 h in the fresh culture medium containing each test compound (3.12, 6.25, 12.5, 25, 50, 100, 200, 400 μM) or 5-FU (positive control) (7.8, 15.6, 31.2, 62.5, 125, 250, 500, 1000 μM). The viable cell numbers were determined by the MTT method. Cytotoxicity induced by DMSO (0.0078, 0.0156, 0.03125, 0.0625, 0.125, 0.25, 0.5 or 1%) was subtracted from each well. The CC50 values were determined from the dose-response curves. The tumor selectivity (TS) was calculated by the following equation: TS = mean CC50 against normal cells/mean CC50 against cancer cells [shown as (D/B) or (C/A) in Table 1]. A potency selectivity expression (PSE) was calculated by multiplying the reciprocal of average CC50 values toward cancer cell lines and the average SI values toward these cell lines and expressed as a percentage [PSE = (D/B^2) × 100].

[2] = Cytotoxicity assay (MTT), HGF cells; assay type: cell-based; settings: human, gingival fibroblasts (HGF), normal oral cells
Protocol: as §1

[3] = test system: HSC-4 (human oral squamous cell carcinoma, tongue); assay: Cytotoxicity assay (MTT), HSC-4 cells; assay type: cell-based; settings: for CC50: Homo sapiens, HSC-4, 48 h, MTT; for SI HSC-4: average CC50 of nonmalignant cells / CC50 toward HSC-4
Protocol: as §1

[4] = test system: Human oral squamous cell carcinoma cells; assay: Cytotoxicity assay (MTT), mean over four OSCC cell lines; assay type: cell-based; settings: for CC50: Homo sapiens, mean of Ca9-22, HSC-2, HSC-3, HSC-4, read-out: (B) Mean CC50, human oral squamous cell carcinoma cells; for TS (D/B): mean CC50 normal cells / mean CC50 OSCC cells; for PSE (D/B^2) × 100: potency selectivity expression, expressed as a percentage
Protocol: as §1

[5] = test system: HSC-3 (human oral squamous cell carcinoma, tongue); assay: Cytotoxicity assay (MTT), HSC-3 cells; assay type: cell-based; settings: for CC50: Homo sapiens, HSC-3, 48 h, MTT; for SI HSC-3: average CC50 of nonmalignant cells / CC50 toward HSC-3
Protocol: as §1

[6] = Cytotoxicity assay (MTT), mean over three normal oral cells; assay type: cell-based; settings: human; mean of HGF, HPLF, HPC; read-out: (D) Mean CC50, human normal oral cells
Protocol: as §1

hCA II = hCA II (Homo sapiens, UniProt P00918); assay: Carbonic anhydrase inhibition assay (esterase activity, 348 nm), hCA II; assay type: biochemical; settings: for Ki: Lineweaver-Burk, three concentrations; for IC50: from activity (%) versus compound plots; for times more potent than AZA toward hCA II: in terms of IC50 values
[7] = test system: HSC-2 (human oral squamous cell carcinoma, tongue); assay: Cytotoxicity assay (MTT), HSC-2 cells; assay type: cell-based; settings: for CC50: Homo sapiens, HSC-2, 48 h, MTT; for SI HSC-2: average CC50 of nonmalignant cells / CC50 toward HSC-2; for times of potency versus 5-FU toward HSC-2: CC50 ratio to reference 5-FU
Protocol: as §1

[8] = Cytotoxicity assay (MTT), HPLF cells; assay type: cell-based; settings: human, periodontal ligament fibroblasts (HPLF), normal oral cells
Protocol: as §1

[9] = test system: Ca9-22 (human oral squamous cell carcinoma, gingiva); assay: Cytotoxicity assay (MTT), Ca9-22 cells; assay type: cell-based; settings: for TS (C/A): CC50 HGF / CC50 Ca9-22; for times of potency versus 5-FU toward Ca9-22: CC50 ratio to reference 5-FU; for CC50: Homo sapiens, Ca9-22, 48 h, MTT, triplicate wells; for SI Ca9-22: average CC50 of nonmalignant cells / CC50 toward Ca9-22
Protocol: as §1

hCA I = hCA I (Homo sapiens, UniProt P00915); assay: Carbonic anhydrase inhibition assay (esterase activity, 348 nm), hCA I; assay type: biochemical; settings: for Ki: Lineweaver-Burk, three concentrations; for IC50: from activity (%) versus compound plots; for times more potent than AZA toward hCA I: in terms of IC50 values
hCA I, sequence (P00915 whole entry): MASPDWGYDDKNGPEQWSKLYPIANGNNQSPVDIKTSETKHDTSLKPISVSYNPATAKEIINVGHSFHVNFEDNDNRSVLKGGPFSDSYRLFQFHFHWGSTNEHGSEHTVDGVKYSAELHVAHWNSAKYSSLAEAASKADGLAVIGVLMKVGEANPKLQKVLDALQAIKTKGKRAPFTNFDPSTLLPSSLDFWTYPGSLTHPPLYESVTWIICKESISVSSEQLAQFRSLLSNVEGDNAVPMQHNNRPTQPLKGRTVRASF

Structure (SMILES) | CC50 at 48 h [1] [µM] | CC50 at 48 h [2] [µM] | CC50 [3] [µM] | SI HSC-4 [3] | CC50 [4] [µM] | TS (D/B) [4] | PSE (D/B^2) × 100 [4] | CC50 [5] [µM] | SI HSC-3 [5] | CC50 at 48 h [6] [µM] | Ki (hCA II) [µM] | IC50 (hCA II) [µM] | times more potent than AZA toward hCA II (hCA II) | CC50 [7] [µM] | SI HSC-2 [7] | CC50 at 48 h [8] [µM] | TS (C/A) [9] | times of potency versus 5-FU toward Ca9-22 [9] | CC50 [9] [µM] | SI Ca9-22 [9] | other results
NS(=O)(=O)c1ccc(N2N=C(c3ccccc3)CC2c2ccc(O)cc2)cc1 (stereo not drawn) [Compound 8, 4-[5-(4-Hydroxyphenyl)-3-phenyl-4,5-dihydro-1H-pyrazol-1-yl]benzenesulfonamide] | 88.3 | 85 | 50.3 | 1.5 | 56.4 | 1.3 | 2.3 | 66.3 | 1.1 | 75.9 | 0.00459 ± 0.00083 | 0.00495 | 40.3 | 67 | 1.1 | 54.3 | 2.0 | 2.4 | 42 | 1.8 | Ki (hCA I): 0.00484 ± 0.00078 µM; IC50 (hCA I): 0.00481 µM; times more potent than AZA toward hCA I (hCA I): 39.5
NS(=O)(=O)c1ccc(N2N=C(c3cccs3)CC2c2ccc(O)cc2)cc1 (stereo not drawn) [Compound 14, 4-[5–(4-Hydroxyphenyl)-3-(thiophen-2-yl)-4,5-dihydro-1H-pyrazol-1-yl] benzenesulfonamide] | 87.3 | 88.3 | 55.3 | 1.5 | 54.3 | 1.5 | 2.8 | 61.3 | 1.4 | 82.9 | 0.00385 ± 0.00057 | 0.00545 | 36.6 | 55 | 1.5 | 73 | 1.9 | 2.2 | 45.7 | 1.8 | Ki (hCA I): 0.00417 ± 0.00093 µM; IC50 (hCA I): 0.00513 µM; times more potent than AZA toward hCA I (hCA I): 37.1
O=c1[nH]cc(F)c(=O)[nH]1 [Compound 5-FU, 5-Fluorouracil, reference compound] | > 1000 | > 1000 | 17.3 |  | 47.6 | >15.5 | >32.6 | 27.3 | >71.5 | > 736 |  |  |  | 45.7 | >16.1 | 208 | >10.0 |  | 100 | >167.3 | 
COc1ccc(C2=NN(c3ccc(S(N)(=O)=O)cc3)C(c3ccc(O)cc3)C2)cc1 (stereo not drawn) [Compound 10, 4-[5-(4-Hydroxyphenyl)-3-(4-methoxyphenyl)-4,5-dihydro-1H-pyrazol-1-yl] benzenesulfonamide] | 61 | 47.3 | 40.7 | 1.2 | 47.7 | 1.1 | 2.2 | 47 | 1.1 | 50.8 | 0.00507 ± 0.00169 | 0.00537 | 37.1 | 65.3 | 0.8 | 44 | 1.3 | 2.7 | 37.7 | 1.3 | Ki (hCA I): 0.00399 ± 0.0009 µM; IC50 (hCA I): 0.00484 µM; times more potent than AZA toward hCA I (hCA I): 39.3
NS(=O)(=O)c1ccc(N2N=C(c3ccc(F)cc3)CC2c2ccc(O)cc2)cc1 (stereo not drawn) [Compound 11, 4-[5-(4-Hydroxyphenyl)-3-(4-fluorophenyl)-4,5-dihydro-1H-pyrazol-1-yl] benzenesulfonamide] | 67.7 | 66.7 | 39.3 | 1.5 | 41.3 | 1.4 | 3.5 | 43.3 | 1.4 | 59.1 | 0.00453 ± 0.00075 | 0.00572 | 34.9 | 46.3 | 1.3 | 43 | 1.8 | 2.8 | 36.3 | 1.6 | times of potency versus 5-FU toward HSC-2 [7]: 1.0; Ki (hCA I): 0.0051 ± 0.00117 µM; IC50 (hCA I): 0.00568 µM; times more potent than AZA toward hCA I (hCA I): 33.5
NS(=O)(=O)c1ccc(N2N=C(c3ccc(Cl)cc3)CC2c2ccc(O)cc2)cc1 (stereo not drawn) [Compound 12, 4-[5-(4-Hydroxyphenyl)-3-(4-chlorophenyl)-4,5-dihydro-1H-pyrazol-1-yl] benzenesulfonamide] | 50.7 | 44 | 31.3 | 1.4 | 32.8 | 1.4 | 4.1 | 38.3 | 1.2 | 44.3 | 0.00406 ± 0.0006 | 0.00425 | 46.9 | 39 | 1.1 | 38.3 | 2.0 | 4.5 | 22.3 | 2.0 | times of potency versus 5-FU toward HSC-2 [7]: 1.2; Ki (hCA I): 0.00449 ± 0.00067 µM; IC50 (hCA I): 0.00491 µM; times more potent than AZA toward hCA I (hCA I): 38.7
Cc1ccc(C2=NN(c3ccc(S(N)(=O)=O)cc3)C(c3ccc(O)cc3)C2)cc1 (stereo not drawn) [Compound 9, 4-[5-(4-Hydroxyphenyl)-3-(4-methylphenyl)-4,5-dihydro-1H-pyrazol-1-yl]benzene sulfonamide] | 49.7 | 43.7 | 31.7 | 1.4 | 32.6 | 1.4 | 4.2 | 39.7 | 1.1 | 44.2 | 0.00748 ± 0.00252 | 0.00563 | 35.5 | 33.3 | 1.3 | 39.3 | 1.7 | 3.9 | 25.7 | 1.7 | times of potency versus 5-FU toward HSC-2 [7]: 1.4; Ki (hCA I): 0.00459 ± 0.00125 µM; IC50 (hCA I): 0.00529 µM; times more potent than AZA toward hCA I (hCA I): 35.9
NS(=O)(=O)c1ccc(N2N=C(c3ccc(Br)cc3)CC2c2ccc(O)cc2)cc1 (stereo not drawn) [Compound 13, 4-[5-(4-Hydroxyphenyl)-3-(4-bromophenyl)-4,5-dihydro-1H-pyrazol-1-yl] benzenesulfonamide] | 39.7 | 34.7 | 25.7 | 1.4 | 29.7 | 1.2 | 3.9 | 34.7 | 1.0 | 34.7 | 0.00456 ± 0.00108 | 0.00465 | 42.9 | 37.7 | 0.9 | 29.7 | 1.7 | 4.8 | 20.7 | 1.7 | times of potency versus 5-FU toward HSC-2 [7]: 1.2; Ki (hCA I): 0.00373 ± 0.00091 µM; IC50 (hCA I): 0.00422 µM; times more potent than AZA toward hCA I (hCA I): 45.1

From paper PMC6009867, “Microwave-assisted synthesis and bioevaluation of new sulfonamides” (Journal of Enzyme Inhibition and Medicinal Chemistry, 2017)
